Like-named read-outs stand apart in the source and are kept apart here.
How the values were obtained:
[1] = tested on: HAP-1, HAP-1.KO.GPx1, and Siso; assay: alkaline Comet assay (summary); assay type: cell-based, human; parameters: key: no impact (0); weak impact (+); strong impact (++); settings: summary grade
From the text: Next, the potential of the pentathiepins 1–6 to damage nuclear DNA was investigated in the cell lines HAP-1, HAP-1.KO.GPx1, and Siso, with different expression levels of GPx1 and CAT (see Figure 7), by Comet Assay (Figure 12) with representative images in the Supplementary Materials (Figure S48).
With this assay, the intensity of DNA damage can be assessed on the level of a single cell, in case of the alkaline version detecting both single and double strand breaks as well as alkali-labile sites. The method presented here is an adaptation of the protocol published by Olive and Banath and based on the distinct electrophoretic mobility of damaged and intact genomic DNA. The latter has a low mobility; does thus not migrate in the electric field; and remains in a nucleoid shape after lysis, referred to as the comet head. In contrast, when strand breaks are created, free charged ends emerge and increase the electrophoretic mobility, prompting DNA segments to drift away from the comet head, thereby forming the so-called comet tail. As descriptor of still intact genomic DNA, the percentage of DNA in the comet head was selected. Per condition, 50,000 cells of either Siso, HAP-1, or HAP-1.KO.GPx1 were diluted in 1 mL of PBS and subsequently treated with either a 1% DMF aqueous solution as negative control, 20 µM of H2O2 as positive control, or 25 µM of pentathiepin for 15 min on ice to impair intracellular DNA repair mechanisms. Afterwards, 400 µL of the cell suspension was blended with 1.2 mL of a 1% low melting point agarose solution (40 °C) and smoothly distributed on agarose-precoated glass slides. Polymerization was finished after 3 min at RT, and the slides were horizontally submerged in alkaline lysis buffer (1.2 M NaCl, 0.1% N-lauryl-sarcosinate, 0.1 M Na-EDTA, 0.26 M NaOH) before storing them at 4 °C overnight. The slides were then rinsed three times in rinse/electrophoresis buffer (0.002 M Na-EDTA, 0.03 M NaOH) before electrophoretic separation was performed for 25 min at 0.6 V/cm. A neutralization step by adding distilled water was followed by staining the slides with 250 µL of an aqueous 10 µg/mL PI solution for 20 min. For visualization and image capturing, a DMi8 fluorescent microscope and LASX software (Leica Microsystems, Wetzlar, Germany) were used, and the comets scored with the help of CometScore2.0 (rexhoover.com). Per condition and replicate, at least 100 comets were analyzed to calculate a mean level of damage.

PATU-8902 = assay: crystal violet proliferation assay; assay type: cell-based; settings: Homo sapiens, 96 h, normoxia, read-out: GI50 CV mean
Procedure: (§1) Distinct MTT cell viability and crystal violet cell proliferation assays were performed to assess the cytotoxicity of the compounds 1–6 on 14 human cancer cell lines. In the viability assay, cells with intact mitochondria and thus active dehydrogenases are competent to convert MTT to the corresponding insoluble formazan. The formazan can be photometrically detected after solubilization and allows for indirect conclusions about the viability of the cells as an IC50 value. In the crystal violet assay, cells are stained by the binding of the dye to the chromatin, thus allowing for a quantification of biomass that remains adherent after a treatment in comparison with a control after a specific time. Potency is defined as the growth inhibitory concentration 50% (GI50).
(§2) The antiproliferative effect of the pentathiepins on human cancer cell lines was analyzed by crystal violet assay based on the protocol of a previous publication. […] After dissolving in ethanol, the optical density was measured. Here, 1000 cells (250 for LCLC-103H) in 0.1 mL of medium were seeded per well of a 96 well plate and incubated at standard conditions for 24 h prior to treatment to allow for adhesion of the cells. A serial dilution of the test compounds was prepared in medium, covering final concentrations from 10.0 to 0.04 µM and 0.1 mL of the working solution added to each well in triplicate. Additionally, samples for each cell line were seeded and directly fixed after 24 h to measure the cell density at the beginning of treatment (t0). Fixation was performed by replacing medium with 0.1 mL of a solution containing 1% glutaraldehyde in Dulbecco’s buffer (0.2 g/L KCl, 0.1 g/L MgSO4·7 H2O, 1.55 g/L Na2HPO4·7 H2O, 0.2 g/L KH2HPO4, and 8 g/L NaCl in water) for 20 min. Plates were stored in 0.1 mL of Dulbecco’s buffer until further processing. After 96 h of treatment, the same fixation process was applied to the plates containing cells and test compounds. To stain the cells, 0.1 mL of an aqueous solution of crystal violet (0.02%) was added per well for 20 min, then discarded and the plates afterwards rinsed in clear water for 30 min. The dye was extracted in 50 µL of ethanol per well during 2 h of shaking. The plates were read at λ = 570 nm using a SpectraMax 384plus (Molecular Devices, Sunnyvale, CA, USA), and the proliferation of the treatment conditions was calculated in relation to a solvent control sample after subtracting the background value of the T0-plates. The GI50 (half-maximal growth inhibitory concentration) was calculated via nonlinear regression followed by interpolation of the dose–response graphs in Prism 7 (GraphPad, San Diego, CA, USA).

Siso = assay: crystal violet proliferation assay; assay type: cell-based; settings: Homo sapiens, 96 h, normoxia, read-out: GI50 CV mean
Procedure: as §1, §2

A2780cis = assay: crystal violet proliferation assay; assay type: cell-based; settings: Homo sapiens, 96 h, normoxia, read-out: GI50 CV mean
Procedure: as §1, §2

A-427 = assay: crystal violet proliferation assay; assay type: cell-based; settings: Homo sapiens, 96 h, normoxia, read-out: GI50 CV mean
Procedure: as §1, §2

HAP-1 = assay: crystal violet proliferation assay; assay type: cell-based; settings: Homo sapiens, HAP1, 96 h, normoxia, read-out: GI50 CV mean
Procedure: as §1, §2

YAPC = assay: crystal violet proliferation assay; assay type: cell-based; settings: Homo sapiens, 96 h, normoxia, read-out: GI50 CV mean
Procedure: as §1, §2

Kyse-70 = assay: crystal violet proliferation assay; assay type: cell-based; settings: Homo sapiens, 96 h, normoxia, read-out: GI50 CV mean
Procedure: as §1, §2

A2780 = assay: crystal violet proliferation assay; assay type: cell-based; settings: Homo sapiens, 96 h, normoxia, read-out: GI50 CV mean
Procedure: as §1, §2

DanG = assay: crystal violet proliferation assay; assay type: cell-based; settings: Homo sapiens, 96 h, normoxia, read-out: GI50 CV mean
Procedure: as §1, §2

RT-4 = assay: crystal violet proliferation assay; assay type: cell-based; settings: Homo sapiens, 96 h, normoxia, read-out: GI50 CV mean
Procedure: as §1, §2

LCLC-103H = assay: crystal violet proliferation assay; assay type: cell-based; settings: Homo sapiens, 96 h, normoxia, read-out: GI50 CV mean
Procedure: as §1, §2

HAP-1.KO.GPx1 = assay: crystal violet proliferation assay; assay type: cell-based; settings: Homo sapiens, 96 h, normoxia, read-out: GI50 CV mean
Procedure: as §1, §2

RT-112 = assay: crystal violet proliferation assay; assay type: cell-based; settings: Homo sapiens, 96 h, normoxia, read-out: GI50 CV mean
Procedure: as §1, §2

MCF-7 = assay: crystal violet proliferation assay; assay type: cell-based, human; settings: normoxia, read-out: GI50 CV mean
Procedure: as §1, §2

SMILES	Comet formation [1]	GI50 (PATU-8902) [nM]	GI50 (Siso) [nM]	GI50 (A2780cis) [nM]	GI50 (A-427) [nM]	GI50 (HAP-1) [nM]	GI50 (YAPC) [nM]	GI50 (Kyse-70) [nM]	GI50 (A2780) [nM]	GI50 (DanG) [nM]	GI50 (RT-4) [nM]	GI50 (LCLC-103H) [nM]	GI50 (HAP-1.KO.GPx1) [nM]	GI50 (RT-112) [nM]	GI50 (MCF-7; 96 h) [nM]	GI50 (MCF-7; Homo sapiens, MCF7, 96 h) [nM]
CCOc1c2c(c3cnc4[nH]c(-c5ccc(OC)cc5)cc4n13)SSSSS2 [Compound 1, 11-Ethoxy-2-(4-methoxyphenyl)-3H-[1,2,3,4,5]pentathiepino[6′,7′:3,4]pyrrolo[1,2-a]pyrrolo[2,3-e]pyrazine]	+	480	256	228	306	339	405	264	236	340	373	441	313	465	209	210
CCOc1c2c(c3ccc(C(=O)N4CCCCC4)cn13)SSSSS2 [Compound 2, (6-Ethoxy-[1,2,3,4,5]pentathiepino[6,7-a]indolizin-9-yl)(piperidinyl)methanone]	+	659	423	234	401	161	628	409	164	644	1520	552	173	559		384
CCOc1c2c(c3ccc(C(=O)N4CCOCC4)cn13)SSSSS2 [Compound 3, (6-Ethoxy-[1,2,3,4,5]pentathiepino[6,7-a]indolizin-9-yl)(morpholino)methanone]	++	257	166	88	142	64	350	142	55	382	193	128	68	246		153
CCOc1c2c(c3ccc(C(=O)N(CC)CC)cn13)SSSSS2 [Compound 4, 6-Ethoxy-N,N’-diethyl-[1,2,3,4,5]pentathiepino[6,7-a]indolizine-9-carboxamide]	++	471	381	173	310	84	608	284	106	459	445	306	116	469		293
CCOc1c2c(c3ccc(C(=O)N4CCN(C(=O)c5ccc(F)cc5)CC4)cn13)SSSSS2 [Compound 5, (6-Ethoxy-[1,2,3,4,5]pentathiepino[6,7-a]indolizin-9-yl)(4-(4-fluorobenzoyl)piperazinyl)methanone]	++	340	369	142	320	120	411	181	92	398	358	232	144	384		248
CCOc1c2c(c3ccc(C(=O)N4CCN(S(=O)(=O)c5ccc(C)cc5)CC4)cn13)SSSSS2 [Compound 6, (6-Ethoxy-[1,2,3,4,5]pentathiepino[6,7-a]indolizin-9-yl)(4-tosylpiperazinyl)methanone]	+	952	597	512	352	507	1170	481	538	711	835	646	524	1100		458

Source: PMC8305076, “Comprehensive Evaluation of Biological Effects of Pentathiepins on Various Human Cancer Cell Lines and Insights into Their Mode of Action” (International Journal of Molecular Sciences, 2021)
